Results reported in EP0339496A2, “Aminoguanidine derivatives” (ONO PHARMACEUTICAL CO., LTD., priority 1988, dated 1989).

Legend:
Maillard reaction [1] = experiment: Inhibitory effect on Maillard reaction in vitro (bovine serum albumin + glucose, fluorescence); format: biochemical; conditions: bovine serum albumin 100 mg/ml, glucose 200 mM, 0.5 M phosphate buffer pH 7.38, one week at 37°C, fluorescence ex 360 nm / em 450 nm
Procedure: In order to evaluate the inhibitory effect on Maillard reaction in vitro, of the compounds in the present invention, the measurement was carried out under conditions described below. Bovine serum albumin (100 mg/ml), glucose (200 mM) and test compound (6 mM, 30 mM in example 2 and 2(a)) were dissolved in 0.5 M phosphatic buffer solution (pH 7.38), and the mixture was incubated for a week at 37°C. After incubation, the incubated medium was diluted 100 times with the same phosphatic buffer solution, and the fluorescence spectrum was measured at the excitation maximum of 360nm and the emission maximum of 450 nm. Inhibition percentage of the test compounds was calculated by the following equation: [table]

[2] = system: advanced glycosylation end products in arterial wall connective tissue protein; conditions: administered to diabetic rats; Brownlee et al., Science, 232, 1629 (1986); cited from earlier work
Maillard reaction [3] = conditions: Brownlee et al., Science, 232, 1629 (1986); cited from earlier work
[4] = test compound 30 mM (example 2 and 2(a))

For `I.N=C(NN)NCc1ccc(F)cc1` [1 (e), 1-amino-3-(4-fluorobenzyl) guanidine hydroiodide], the “Inhibitory effect (%)” value (Maillard reaction [1]; test compound 6 mM) was 43%.
With `COc1ccc(CNC(=N)NN)cc1.I` [1 (f), 1-amino-3-(4-methoxybenzyl) guanidine hydroiodide] the “Inhibitory effect (%)” value (Maillard reaction [1]; test compound 6 mM) was 54%.
In the case of `CCCCN(CCCC)C(=N)NN` [1 (g), 1-amino-3,3-n-butylguanidine hydroiodide], the “Inhibitory effect (%)” value (Maillard reaction [1]; test compound 6 mM) was 34%.
For `N=C(NN)NCc1cccc2ccccc12` [1 (h), 1-amino-3-(1-naphtylmethyl) guanidine hydroiodide], the “Inhibitory effect (%)” value (Maillard reaction [1]; test compound 6 mM) was 51%.
In the case of `I.N=C(NN)NCc1cccc([N+](=O)[O-])c1` [1 (i), 1-amino-3-(3-nitrobenzyl) guanidine hydroiodide], the “Inhibitory effect (%)” value (Maillard reaction [1]; test compound 6 mM) was 57%.
In the case of `CN(C(=N)NN)c1ccccc1.I` [1 (o), 1-amino-3-methyl-3-phenyl guanidine hydroiodide], the “Inhibitory effect (%)” value (Maillard reaction [1]; test compound 6 mM) was 54%.
With `CN(N)C(=N)NCc1ccccc1.I` [1 (r), 1-amino-1-methyl-3-benzylguanidine hydroiodide] the “Inhibitory effect (%)” value (Maillard reaction [1]; test compound 6 mM) was 36%.
For `Cl.N=C(NN)N1CCCC1` [1 (u), 1-pyrrolidinecarbohydrazide imide hydrochloride], the “Inhibitory effect (%)” value (Maillard reaction [1]; test compound 6 mM) was 43%.
With `Cl.N=C(NN)N1CCOCC1` [1 (v), 4-morpholinecarbohydrazide imide hydrochloride] the “Inhibitory effect (%)” value (Maillard reaction [1]; test compound 6 mM) was 36%.
For `N=C(N)N(N)CCCc1ccccc1` [2 (b), 1-amino-1-(3-phenylpropyl) guanidine], the “Inhibitory effect (%)” value (Maillard reaction [1]; test compound 6 mM) was 50%.
In the case of `N=C(N)N(N)CC1CCCC1` [2 (c), 1-amino-1-cyclopenthylmethyl guanidine], the “Inhibitory effect (%)” value (Maillard reaction [1]; test compound 6 mM) was 56%.
In the case of `I.N=C(NN)NCCc1ccccc1` [Example 1 (a), 1-amino-3-phenethylguanidine hydroiodide], the “Inhibitory effect (%)” value (Maillard reaction [1]; test compound 6 mM) was 72%.
In the case of `I.N=C(NN)NCc1ccccc1` [Example 1, 1-amino-3-benzylguanidine hydroiodide], the “Inhibitory effect (%)” value (Maillard reaction [1]; test compound 6 mM) was 63%.
In the case of `N=C(N)N(N)Cc1ccccc1` [Example 2 (a), 1-amino-1-benzylguanidine], the “Inhibitory effect (%)” value (Maillard reaction [1]; [4]) was 50%.
For `N=C(N)N(N)CCc1ccccc1` [Example 2, 1-Amino-1-phenethylguanidine], the “Inhibitory effect (%)” value (Maillard reaction [1]; [4]) was 71%.
In the case of `N=C(N)NN` [aminoguanidine], the “inhibits diabetes-induced accumulation of advanced glycosylation end products in arterial wall connective tissue protein” value [2] is listed as “inhibits” and the “inhibits Maillard reaction in vitro” value (Maillard reaction [3]) is listed as “inhibits”.
